According to PubChem BioAssay AID248 (DTP/NCI, 2004):
“And” between values parts separate entries of the source, which are not always exact repeats. Identical values can stand only once. Toxic doses and inconclusive results are not listed. No stated cut-off is given here; in the data, active means T/C of 150% or more; inactive means T/C below 125%.

Test system: L1210 leukemia ip in BDF1 mice, survival T/C
Assay: NCI In Vivo Anticancer Drug Screen. Data for tumor model L1210 Leukemia (intraperitoneal) in B6D2F1 (BDF1) mice
Conditions: higher = longer survival
Procedure, shortened: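 Each compound was tested against a transplantable tumor grown in mice. The endpoint was survival, with treated animals benchmarked against vehicle controls as a simple ratio.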

[1] = endpoint: mean survival time, dose: 50.0 mg/kg/injection, schedule: Q01DX001 (ip), vehicle: carboxymethylcellulose (CMC)
[2] = endpoint: mean survival time, dose: 100.0 mg/kg/injection, schedule: Q01DX001 (ip), vehicle: carboxymethylcellulose (CMC)
[3] = endpoint: mean survival time, dose: 50.0 mg/kg/injection, schedule: Q04DX003 (ip), vehicle: Klucel (hydroxypropylcellulose) (HPC)
[4] = endpoint: mean survival time, dose: 100.0 mg/kg/injection, schedule: Q04DX003 (ip), vehicle: Klucel (hydroxypropylcellulose) (HPC)
[5] = endpoint: mean survival time, dose: 200.0 mg/kg/injection, schedule: Q04DX003 (ip), vehicle: Klucel (hydroxypropylcellulose) (HPC)
[6] = endpoint: mean survival time, dose: 100.0 mg/kg/injection, schedule: Q04DX003 (ip), vehicle: saline with Tween-80
[7] = endpoint: mean survival time, dose: 200.0 mg/kg/injection, schedule: Q04DX003 (ip), vehicle: saline with Tween-80
[8] = endpoint: mean survival time, dose: 400.0 mg/kg/injection, schedule: Q04DX003 (ip), vehicle: saline with Tween-80

Measured: T/C

CC(=O)c1cccc(NC2C(N)C(NC(=O)N(C)C)(C(C)O)C(C)(O)C2(O)COC(=O)c2c(C)cccc2O)c1 (configuration not stated)
inactive: endpoint: mean survival time, dose: 0.25 mg/kg/injection, schedule: Q01DX Z (ip), vehicle: saline 98 % of control | endpoint: mean survival time, dose: 0.5 mg/kg/injection, schedule: Q01DX Z (ip), vehicle: saline 98 % of control | endpoint: mean survival time, dose: 0.7 mg/kg/injection, schedule: Q01DX015 (ip), vehicle: carboxymethylcellulose (CMC) 111 % of control | endpoint: mean survival time, dose: 1.0 mg/kg/injection, schedule: Q01DX Z (ip), vehicle: saline 113 % of control | endpoint: mean survival time, dose: 1.5 mg/kg/injection, schedule: Q01DX015 (ip), vehicle: carboxymethylcellulose (CMC) 122 % of control | endpoint: mean survival time, dose: 2.0 mg/kg/injection, schedule: Q01DX Z (ip), vehicle: saline 117 % of control | endpoint: mean survival time, dose: 3.0 mg/kg/injection, schedule: Q01DX001 (ip), vehicle: carboxymethylcellulose (CMC) 104 % of control | endpoint: mean survival time, dose: 3.0 mg/kg/injection, schedule: Q01DX015 (ip), vehicle: carboxymethylcellulose (CMC) 90 % of control | endpoint: mean survival time, dose: 6.0 mg/kg/injection, schedule: Q01DX001 (ip), vehicle: carboxymethylcellulose (CMC) 107 % of control | endpoint: mean survival time, dose: 12.0 mg/kg/injection, schedule: Q01DX001 (ip), vehicle: carboxymethylcellulose (CMC) 107 % of control | endpoint: mean survival time, dose: 25.0 mg/kg/injection, schedule: Q01DX001 (ip), vehicle: carboxymethylcellulose (CMC) 112 % of control | [1] 112 % of control | [2] 114 % of control | endpoint: median survival time, dose: 2.0 mg/kg/injection, schedule: Q04DX003 (ip), vehicle: acid diluted with saline 103 % of control | endpoint: median survival time, dose: 4.0 mg/kg/injection, schedule: Q04DX003 (ip), vehicle: acid diluted with saline 103 % of control | endpoint: median survival time, dose: 8.0 mg/kg/injection, schedule: Q04DX003 (ip), vehicle: acid diluted with saline 103 % of control | endpoint: median survival time, dose: 16.0 mg/kg/injection, schedule: Q04DX003 (ip), vehicle: acid diluted with saline 112 % of control

CCCC/C(CC)=N\N=C(/CC)CCCC
inactive: endpoint: mean survival time, dose: 50.0 mg/kg/injection, schedule: Q04DX002 (ip), vehicle: saline 91 % of control | endpoint: mean survival time, dose: 100.0 mg/kg/injection, schedule: Q04DX002 (ip), vehicle: saline 102 % of control | endpoint: mean survival time, dose: 200.0 mg/kg/injection, schedule: Q04DX002 (ip), vehicle: saline 88 % of control | endpoint: mean survival time, dose: 400.0 mg/kg/injection, schedule: Q04DX002 (ip), vehicle: saline 96 % of control

O=[N+]([O-])c1ccc(OCCCCCBr)c(Cl)c1
inactive: endpoint: mean survival time, dose: 100.0 mg/kg/injection, schedule: Q04DX003 (ip), vehicle: gum acacia 102 % of control | endpoint: mean survival time, dose: 200.0 mg/kg/injection, schedule: Q04DX003 (ip), vehicle: gum acacia 100 % of control | endpoint: mean survival time, dose: 400.0 mg/kg/injection, schedule: Q04DX003 (ip), vehicle: gum acacia 102 % of control

CC(=O)OC1C(OCc2ccccc2)OC(COCc2ccccc2)C(OC2OC(COCc3ccccc3)C(OCc3ccccc3)C(OCc3ccccc3)C2OCc2ccccc2)C1OCc1ccccc1 (configuration not stated)
inactive: endpoint: mean survival time, dose: 5.31 mg/kg/injection, schedule: Q01DX009 (ip), vehicle: Klucel (hydroxypropylcellulose) (HPC) 97 % of control | endpoint: mean survival time, dose: 10.62 mg/kg/injection, schedule: Q01DX009 (ip), vehicle: Klucel (hydroxypropylcellulose) (HPC) 94 % of control | endpoint: mean survival time, dose: 12.5 mg/kg/injection, schedule: Q04DX003 (ip), vehicle: Klucel (hydroxypropylcellulose) (HPC) 87 % of control and 92 % of control | endpoint: mean survival time, dose: 21.25 mg/kg/injection, schedule: Q01DX009 (ip), vehicle: Klucel (hydroxypropylcellulose) (HPC) 94 % of control | endpoint: mean survival time, dose: 25.0 mg/kg/injection, schedule: Q04DX003 (ip), vehicle: Klucel (hydroxypropylcellulose) (HPC) 87 % of control | [3] 87 % of control and 88 % of control | endpoint: mean survival time, dose: 75.0 mg/kg/injection, schedule: Q04DX003 (ip), vehicle: other 91 % of control | endpoint: mean survival time, dose: 85.0 mg/kg/injection, schedule: Q01DX009 (ip), vehicle: Klucel (hydroxypropylcellulose) (HPC) 86 % of control | endpoint: mean survival time, dose: 115.0 mg/kg/injection, schedule: Q04DX003 (ip), vehicle: other 91 % of control | endpoint: mean survival time, dose: 170.0 mg/kg/injection, schedule: Q04DX003 (ip), vehicle: other 93 % of control

COc1ccc(CCC(=O)c2ccccc2)cc1
inactive: [3] 98 % of control | [4] 104 % of control | [5] 107 % of control

NC(=O)C1(Cl)CC2C=CC1C2 (configuration not stated)
inactive: endpoint: mean survival time, dose: 25.0 mg/kg/injection, schedule: Q01DX009 (ip), vehicle: saline with Tween-80 90 % of control | endpoint: mean survival time, dose: 25.0 mg/kg/injection, schedule: Q04DX003 (ip), vehicle: saline 100 % of control | endpoint: mean survival time, dose: 50.0 mg/kg/injection, schedule: Q01DX009 (ip), vehicle: saline with Tween-80 95 % of control | endpoint: mean survival time, dose: 50.0 mg/kg/injection, schedule: Q04DX003 (ip), vehicle: saline 99 % of control | endpoint: mean survival time, dose: 100.0 mg/kg/injection, schedule: Q01DX009 (ip), vehicle: saline with Tween-80 97 % of control | endpoint: mean survival time, dose: 100.0 mg/kg/injection, schedule: Q04DX003 (ip), vehicle: saline 110 % of control

c1coc(CNCNCc2ccco2)c1
inactive: endpoint: mean survival time, dose: 155.0 mg/kg/injection, schedule: Q01DX Z (ip), vehicle: methylcellulose (MC) 94 % of control | endpoint: mean survival time, dose: 233.0 mg/kg/injection, schedule: Q01DX Z (ip), vehicle: methylcellulose (MC) 105 % of control | endpoint: mean survival time, dose: 350.0 mg/kg/injection, schedule: Q01DX Z (ip), vehicle: methylcellulose (MC) 100 % of control

CC(=O)N1C(=O)NC(=O)C1(C)c1cccs1 (configuration not stated)
inactive: [6] 104 % of control | [7] 98 % of control | [8] 105 % of control

O=C(O)CNC(=O)CNC(=O)C(Br)Cc1ccccc1 (configuration not stated)
inactive: endpoint: mean survival time, dose: 100.0 mg/kg/injection, schedule: Q01DX009 (ip), vehicle: Klucel (hydroxypropylcellulose) (HPC) 98 % of control | [6] 101 % of control | endpoint: mean survival time, dose: 200.0 mg/kg/injection, schedule: Q01DX009 (ip), vehicle: Klucel (hydroxypropylcellulose) (HPC) 88 % of control | [7] 95 % of control | [8] 100 % of control

Cc1ccc(Nc2nc(N)nc(N)c2C=O)cc1C
inactive: endpoint: mean survival time, dose: 50.0 mg/kg/injection, schedule: Q01DX001 (ip), vehicle: saline 109 % of control | endpoint: mean survival time, dose: 100.0 mg/kg/injection, schedule: Q01DX001 (ip), vehicle: saline 109 % of control | endpoint: mean survival time, dose: 200.0 mg/kg/injection, schedule: Q01DX001 (ip), vehicle: saline 100 % of control | endpoint: mean survival time, dose: 400.0 mg/kg/injection, schedule: Q01DX001 (ip), vehicle: saline 97 % of control

NC(=O)c1ccccc1OC(=O)Nc1ccc(F)cc1
inactive: [1] 100 % of control | endpoint: mean survival time, dose: 50.0 mg/kg/injection, schedule: Q01DX009 (ip), vehicle: carboxymethylcellulose (CMC) 97 % of control | [2] 103 % of control | endpoint: mean survival time, dose: 100.0 mg/kg/injection, schedule: Q01DX009 (ip), vehicle: carboxymethylcellulose (CMC) 100 % of control and 103 % of control | endpoint: mean survival time, dose: 100.0 mg/kg/injection, schedule: Q04DX002 (ip), vehicle: carboxymethylcellulose (CMC) 100 % of control and 109 % of control | endpoint: mean survival time, dose: 200.0 mg/kg/injection, schedule: Q01DX001 (ip), vehicle: carboxymethylcellulose (CMC) 102 % of control | endpoint: mean survival time, dose: 200.0 mg/kg/injection, schedule: Q04DX002 (ip), vehicle: carboxymethylcellulose (CMC) 100 % of control | endpoint: mean survival time, dose: 400.0 mg/kg/injection, schedule: Q04DX002 (ip), vehicle: carboxymethylcellulose (CMC) 86 % of control

CC1C(c2ccccc2)OCCN1CN1C(=O)c2ccccc2C1=O (configuration not stated)
inactive: endpoint: mean survival time, dose: 100.0 mg/kg/injection, schedule: Q04DX002 (ip), vehicle: Klucel (hydroxypropylcellulose) (HPC) 100 % of control | endpoint: mean survival time, dose: 200.0 mg/kg/injection, schedule: Q04DX002 (ip), vehicle: Klucel (hydroxypropylcellulose) (HPC) 104 % of control | endpoint: mean survival time, dose: 400.0 mg/kg/injection, schedule: Q04DX002 (ip), vehicle: Klucel (hydroxypropylcellulose) (HPC) 104 % of control

COc1cc(OC)cc(OC)c1
inactive: [4] 100 % of control | [5] 105 % of control | endpoint: mean survival time, dose: 400.0 mg/kg/injection, schedule: Q04DX003 (ip), vehicle: Klucel (hydroxypropylcellulose) (HPC) 97 % of control
